# Experimental data published in patent US20110112103A1, “5-HYDROXYPYRIMIDINE-4-CARBOXAMIDE COMPOUND” (DAIICHI SANKYO COMPANY, LIMITED, priority 2008, published 2011).
# Test system: not given
# Test: not given
# Settings: not given
row,SMILES,melting point
1,"Cc1nc(CC2(C)CCN(c3ccc(F)cc3)CC2)nc(C(=O)NCC(=O)O)c1O [Example 186, {[(2-{[1-(4-Fluorophenyl)-4-methylpiperidin-4-yl]methyl}-5-hydroxy-6-methylpyrimidin-4-yl)carbonyl]amino}acetic acid]",140 to 141 °C
2,"Cc1nc(C[C@H]2OC[C@H](c3ccc(F)cc3)CO2)nc(C(=O)NCC(=O)O)c1O [Example 196, {[(2-{[trans-5-(4-Fluorophenyl)-1,3-dioxan-2-yl]methyl}-5-hydroxy-6-methylpyrimidin-4-yl)carbonyl]amino}acetic acid]",209 °C

# Test system: human liver cancer-derived cell line Hep3B
# Test: in vitro erythropoietin (EPO) induction activity in Hep3B cells, EPO ELISA of culture supernatant
# Type: cell-based
# Settings: test compound 12.5 μM, 24 hours at 37° C., multiple against EPO concentration in control (0.5% DMSO)
# Experimental: The in vitro erythropoietin (EPO) induction activity of test compounds was evaluated using human liver cancer-derived cell line Hep3B (ATCC, Manassas, Va.). Hep3B cells were cultured overnight at 37° C. in Dulbecco's Modified Eagle's Medium (DMEM) in the presence of 10% fetal bovine serum (FBS) (24-well plate, 1.0×10^5 cells/well). After replacing with fresh DMEM (+10% FBS) containing a test compound dissolved in 0.5% dimethyl sulfoxide (DMSO) (prepared to a concentration of 12.5 μM) or a solvent control (0.5% DMSO), the cells were cultured for 24 hours at 37° C. After recovering the culture supernatant, EPO concentration in the culture supernatant was quantified using a human EPO ELISA kit (StemCell Technologies). The compounds of Examples 1, 2, 5, 20, 43, 56, 100, 103, 109, 167, 173, 181, 193 and 198 were used for the test compounds. The EPO concentration of each Example was expressed as a multiple against the EPO concentration in the control.
row,SMILES,fold induction at 12.5 µM
1,Cc1nc(CC2CCN(c3ccc(C(C)(C)C)cc3)CC2)nc(C(=O)NCC(=O)O)c1O [Example 1],98
2,"Cc1nc(CC2CCN(c3ccccc3)CC2)nc(C(=O)NCC(=O)O)c1O [Example 2, [({5-Hydroxy-6-methyl-2-[(1-phenylpiperidin-4-yl)methyl]pyrimidin-4-yl}carbonyl)amino]acetic acid]",37
3,"Cc1nc(CC2CCN(c3ccc(F)cc3)CC2)nc(C(=O)NCC(=O)O)c1O [Example 5, {[(2-{[1-(4-Fluorophenyl)piperidin-4-yl]methyl}-5-hydroxy-6-methylpyrimidin-4-yl)carbonyl]amino}acetic acid]",29
4,"Cc1nc(CC2CCN(c3ccc(C(F)(F)F)cc3)CC2)nc(C(=O)NCC(=O)O)c1O [Example 20, ({[5-Hydroxy-6-methyl-2-({1-[4-(trifluoromethyl)phenyl]piperidin-4-yl}methyl)pyrimidin-4-yl]carbonyl}amino)acetic acid]",127
5,"Cc1nc(CC2CCN(c3ccc(-c4ccccc4)cc3)CC2)nc(C(=O)NCC(=O)O)c1O [Example 43, {[(2-{[1-(Biphenyl-4-yl)piperidin-4-yl]methyl}-5-hydroxy-6-methylpyrimidin-4-yl)carbonyl]amino}acetic acid]",262
6,"Cc1nc(CC2CCN(c3ccc(Cc4ccccc4)cc3)CC2)nc(C(=O)NCC(=O)O)c1O [Example 56, {[(2-{[1-(4-Benzylphenyl)piperidin-4-yl]methyl}-5-hydroxy-6-methylpyrimidin-4-yl)carbonyl]amino}acetic acid]",158
7,"Cc1nc(CC2CCN(c3ccc(-c4ccccn4)cc3)CC2)nc(C(=O)NCC(=O)O)c1O [Example 100, ({[5-Hydroxy-6-methyl-2-({1-[4-(pyridin-2-yl)phenyl]piperidin-4-yl}methyl)pyrimidin-4-yl]carbonyl}amino)acetic acid]",104
8,"Cc1nc(CC2CCN(c3ccc(-c4cccnc4)cc3)CC2)nc(C(=O)NCC(=O)O)c1O [Example 103, ({[5-Hydroxy-6-methyl-2-({1-[4-(pyridin-3-yl)phenyl]piperidin-4-yl}methyl)pyrimidin-4-yl]carbonyl}amino)acetic acid]",100
9,"Cc1nc(CC2CCN(c3ccc(-c4nccs4)cc3)CC2)nc(C(=O)NCC(=O)O)c1O [Example 109, ({[5-Hydroxy-6-methyl-2-({1-[4-(1,3-thiazol-2-yl)phenyl]piperidin-4-yl}methyl)pyrimidin-4-yl]carbonyl}amino)acetic acid]",142
10,"Cc1nc(CC2=CCN(c3ccc(C(C)(C)C)cc3)CC2)nc(C(=O)NCC(=O)O)c1O [Example 167, {[(2-{[1-(4-tert-Butylphenyl)-1,2,3,6-tetrahydropyridin-4-yl]methyl}-5-hydroxy-6-methylpyrimidin-4-yl)carbonyl]amino}acetic acid]",225
11,"Cc1nc(Cc2ccc(-c3ccc(C(C)(C)C)cc3)nc2)nc(C(=O)NCC(=O)O)c1O [Example 173, {[(2-{[6-(4-tert-Butylphenyl)pyridin-3-yl]methyl}-5-hydroxy-6-methylpyrimidin-4-yl)-carbonyl]amino}acetic acid]",184
12,"Cc1nc(Cc2cnc(-c3ccc(C(C)(C)C)cc3)nc2)nc(C(=O)NCC(=O)O)c1O [Example 181, {[(2-{[2-(4-tert-Butylphenyl)pyrimidin-5-yl]methyl}-5-hydroxy-6-methylpyrimidin-4-yl)-carbonyl]amino}acetic acid]",155
13,"CSc1nc(CC2CCN(c3ccc(C(C)(C)C)cc3)CC2)nc(C(=O)NCC(=O)O)c1O [Example 193, ({[2-{[1-(4-tert-Butylphenyl)piperidin-4-yl]methyl}-5-hydroxy-6-(methylsulfanyl)pyrimidin-4-yl]carbonyl}amino)acetic acid]",147
14,"Cc1nc(C[C@H]2OC[C@H](c3ccc(-c4ccccc4)cc3)CO2)nc(C(=O)NCC(=O)O)c1O [Example 198, {[(2-{[trans-5-(Biphenyl-4-yl)-1,3-dioxan-2-yl]methyl}-5-hydroxy-6-methylpyrimidin-4-yl)-carbonyl]amino}acetic acid]",108
